The source of these data is US20090222938A1, “Therapeutic Target Molecules For The Development of Novel Medicaments for Degenerative Diseases” (Neuroprofile GMBH, priority 2006, published 2009).

Common to all, as to assay type: cell-based
Experiment [1] concerns NT2-N neuron cells. Briefly: Live/Dead-Viability/Cytotoxicity Assay, survival of neurons under chronic sublethal oxidative stressor. The settings on record: stressor 1.0-25 μM, serum-free; more than 3 days after the time point of sampling. From the text:
The increase of MAC30-mRNA in NT2-N neuron cells (Andrews P. W., Dev. Biol., 103, pp 285-293, 1984; Pleasure S. J., Page C., Lee V. M.-Y., J. Neurosci., 12, pp 1802-1815, 1992) has been detected in microarray analyses using fluorescence-labelled cDNA after treating the cells under serum-free conditions with chronic sublethal concentrations of the oxidative stressor haloperidol (Sigma; catalogue No. H-1512). Appropriate conditions for an optimal survival rate of the cells were obtained by means of the Live/Dead-Viability/Cytotoxicity Assay (Molecular Probes) according to the manual of the manufacturer. […] 2′,7′-dichlorodihydrofluorescein-diacetate (Sigma, catalogue No. D6883) was used for determining total cell quantity of ROS. […] Subsequently, the cells were homogenized by sonication, centrifugated (20 minutes, 4° C., 20.000×g), and the fluorescence of the supernatant was measured. […] The relative increase of ROS was calculated in relation to the control. Further, ROS was determined by means of dihydroethidium (DHE; Sigma catalogue No. D7008). 5 μM DHE was added into an aliquot of the scraped cells, incubated for 1 hour at 37° C., processed analogous to the DCFDA procedure, and the fluorescence of the supernatant was determined. The protein adjusted alteration of mitochondrial ROS was calculated in relation to the untreated control. […]

Experiment [2] deals with MAC30-mRNA in NT2-N neuron cells. Briefly: MAC30 mRNA quantitative real-time RT-PCR (SYBR Green 1) after stressor treatment.
Excerpt: The MAC30-mRNA increase may be quantified by a quantitative real-time RT-PCR analysis (qRTRTPCR) with fluorescence labelling by SYBR Green 1.
Experiment [3] concerns BRI3-mRNA in NT2-N neurons. The experiment in a line: BRI3 mRNA quantitative real-time RT-PCR after stressor treatment.
Excerpt: This increase may be quantified by means of a quantitative real-time RT-PCR analysis (qRTRTPCR) with fluorescence labelling by SYBR Green 1.
For experiment [4], the system named is G1P3-mRNA in NT2-N neurons. Briefly: G1P3 mRNA quantitative real-time RT-PCR after stressor treatment. For orientation: Quantitative PCR measures a nucleic acid by following its amplification.
Excerpt: The increase was quantified by means of a quantitative real-time RT-PCR analysis (qRTRTPCR) with fluorescence labeling by SYBR Green 1. […] The PCR primer pair G1P3-For1 (5′-[sequence]-3′) (SEQ ID NO: 118) and GIP3-Rev2 (5′-[sequence]-3′) (SEQ ID NO: 119) is suitable for the analysis of the G1P3 mRNA by means of qRTRTPCR.
Experiment [5] has as its system LOC222171-mRNA in NT2-N neurons. The experiment in a line: LOC222171 mRNA quantitative real-time RT-PCR after stressor treatment. The settings on record: 15 days of treatment.
Excerpt: This increase was quantified by means of a quantitative real time RT-PCR analysis (qRTRTPCR) featuring fluorescence labelling by SYBR-Green 1. […] The PCR primer pair LOC222171-For1 (5′-[sequence]-3′) (SEQ ID NO: 120) and LOC222171-Rev2 (5′-[sequence]-3′) (SEQ ID NO: 121) is suitable for the analysis of the LOC222171 mRNA by means of qRTRTPCR.
Experiment [6] has as its system CUEDC1-mRNA in NT2-N neurons. Briefly: CUEDC1 mRNA quantitative real-time RT-PCR after stressor treatment. Conditions: 15 days of chronic oxidative stress.
Excerpt: This increase was further quantified by means of a quantitative real time RT-PCR analysis (qRTRTPCR) with fluorescence labelling by SYBR-Green 1. […] The PCR primer pair CUEDC1-For1 (5′-[sequence]-3′) (SEQ ID NO: 122) and CUEDC1-Rev2 (5′-[sequence]-3′) (SEQ ID NO: 123) is suitable for the analysis of the CUEDC1 mRNA by means of qRTRTPCR.
The test system of experiment [7] is NPC2-mRNA in NT2-N neurons. The experiment in a line: NPC2 mRNA quantitative real-time RT-PCR after stressor treatment.
For experiment [8], the system named is SCD-mRNA in NT2-N neurons. Briefly: SCD mRNA quantitative real-time RT-PCR after stressor treatment. The settings on record: 15 day treatment.
For experiment [9], the system named is IDI1 protein in NT2-N neurons. Briefly: IDI1 protein quantity by two dimensional polyacrylamid gel electrophoresis and mass spectrometric identification. Conditions: 15 day treatment.
Excerpt: The increase of the IDI1 protein (IDI1=Isopentenyl-diphosphate delta isomerase 1; =Isopentenyl diphosphate dimethylallyl diphosphate isomerase 1) was detected with a two dimensional polyacrylamid gel electrophoresis after treatment of NT2-N neurons with haloperidol (as described in example 1) and subsequent mass spectrometric identification of the protein spot.
[10] abbreviates: longer treatment, 'may achieve up to ... or more'.

On to `O=C(CCCN1CCC(O)(c2ccc(Cl)cc2)CC1)c1ccc(F)cc1` [haloperidol], for which the neurons alive entry in experiment [1] was “More than 75%”. The MAC30-mRNA increase result in [2] (8-day treatment, 1.0-25 μM) is recorded as “at least 50%”; in experiment [2] (setting [10]) it was not below 200%. For the same molecule, the BRI3-mRNA increase is reported as not below 40% in experiment [3] (8-day treatment), “increase can be detected” in [3] (3 days after treatment) and not below 200% in [3] (setting [10]). Further, the G1P3-mRNA increase is recorded as not below 50% in experiment [4] (8-day treatment), “marked increase” in experiment [4] (after 3 days) and not below 400% in experiment [4] (setting [10]). Moreover, the LOC222171-mRNA increase in [5] is not below 50%. The CUEDC1-mRNA increase result in [6] is reported as “more than 30%”. Further, in experiment [7] (15 days of chronic sublethal oxidative stress), the NPC2-mRNA increase is listed as not below 50%. Moreover, the “NPC2-mRNA increase in comparison to untreated neurons” value in experiment [7] (after 3 days) was “significant increase”. In [8], the “SCD-mRNA increase in comparison to untreated neurons” value is recorded as not below 50%. This molecule showed an IDI1-protein quantity increase in experiment [9] not below 30%.
